Data set [1] relates to A20 cells. Briefly: Gene expression (qRT-PCR) in A20 cells cultured with epigenetic enzyme inhibitors. It counts as cell-based, mouse. As to conditions: 72 hours; for AhR gene expression / Arnt gene expression: AzaC 2, 5, 10 μM, SAHA 0.1, 0.5, 1.0 μM, GSK126 5, 10, 15 μM, FIG. 6. In general terms: Real-time PCR tracks product formation cycle by cycle.
Data set [2] deals with Ezh2 (Homo sapiens, UniProt Q15910). The settings on record: cited from earlier work.
Sequence of Ezh2 (Q15910 whole entry, species assumed): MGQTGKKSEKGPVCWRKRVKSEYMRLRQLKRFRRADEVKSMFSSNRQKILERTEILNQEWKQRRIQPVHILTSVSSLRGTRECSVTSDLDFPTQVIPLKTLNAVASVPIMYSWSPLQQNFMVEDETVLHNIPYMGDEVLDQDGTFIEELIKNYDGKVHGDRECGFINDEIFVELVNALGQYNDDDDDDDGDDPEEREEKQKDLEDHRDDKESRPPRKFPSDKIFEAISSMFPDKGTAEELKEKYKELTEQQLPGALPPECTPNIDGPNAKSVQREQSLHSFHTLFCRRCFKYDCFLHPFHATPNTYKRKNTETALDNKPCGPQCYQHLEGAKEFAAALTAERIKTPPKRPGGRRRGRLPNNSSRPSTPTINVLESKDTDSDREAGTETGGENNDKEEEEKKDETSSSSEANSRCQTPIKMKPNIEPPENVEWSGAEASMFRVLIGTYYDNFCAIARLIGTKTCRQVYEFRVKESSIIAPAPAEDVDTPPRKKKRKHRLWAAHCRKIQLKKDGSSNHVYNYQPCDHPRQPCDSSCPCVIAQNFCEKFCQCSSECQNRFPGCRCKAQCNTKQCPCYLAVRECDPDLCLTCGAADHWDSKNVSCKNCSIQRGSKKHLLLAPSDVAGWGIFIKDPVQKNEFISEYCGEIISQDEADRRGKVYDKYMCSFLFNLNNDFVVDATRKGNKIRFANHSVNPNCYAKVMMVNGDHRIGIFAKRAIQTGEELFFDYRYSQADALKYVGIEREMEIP
Sequence of Ezh2 (O75530 whole entry partner, species assumed): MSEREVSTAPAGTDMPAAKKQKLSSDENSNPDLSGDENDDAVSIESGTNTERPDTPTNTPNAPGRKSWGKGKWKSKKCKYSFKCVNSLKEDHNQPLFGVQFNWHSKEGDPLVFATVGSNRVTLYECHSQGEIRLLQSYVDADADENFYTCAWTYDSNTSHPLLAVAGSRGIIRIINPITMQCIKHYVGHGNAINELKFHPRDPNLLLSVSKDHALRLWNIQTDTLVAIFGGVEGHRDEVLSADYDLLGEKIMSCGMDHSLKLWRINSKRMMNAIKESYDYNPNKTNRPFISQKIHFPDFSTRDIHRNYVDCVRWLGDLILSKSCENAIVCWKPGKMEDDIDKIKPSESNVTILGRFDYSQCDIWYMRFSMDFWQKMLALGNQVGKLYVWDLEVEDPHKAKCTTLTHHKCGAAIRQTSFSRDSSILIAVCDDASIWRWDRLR
Sequence of Ezh2 (Q15022 whole entry partner, species assumed): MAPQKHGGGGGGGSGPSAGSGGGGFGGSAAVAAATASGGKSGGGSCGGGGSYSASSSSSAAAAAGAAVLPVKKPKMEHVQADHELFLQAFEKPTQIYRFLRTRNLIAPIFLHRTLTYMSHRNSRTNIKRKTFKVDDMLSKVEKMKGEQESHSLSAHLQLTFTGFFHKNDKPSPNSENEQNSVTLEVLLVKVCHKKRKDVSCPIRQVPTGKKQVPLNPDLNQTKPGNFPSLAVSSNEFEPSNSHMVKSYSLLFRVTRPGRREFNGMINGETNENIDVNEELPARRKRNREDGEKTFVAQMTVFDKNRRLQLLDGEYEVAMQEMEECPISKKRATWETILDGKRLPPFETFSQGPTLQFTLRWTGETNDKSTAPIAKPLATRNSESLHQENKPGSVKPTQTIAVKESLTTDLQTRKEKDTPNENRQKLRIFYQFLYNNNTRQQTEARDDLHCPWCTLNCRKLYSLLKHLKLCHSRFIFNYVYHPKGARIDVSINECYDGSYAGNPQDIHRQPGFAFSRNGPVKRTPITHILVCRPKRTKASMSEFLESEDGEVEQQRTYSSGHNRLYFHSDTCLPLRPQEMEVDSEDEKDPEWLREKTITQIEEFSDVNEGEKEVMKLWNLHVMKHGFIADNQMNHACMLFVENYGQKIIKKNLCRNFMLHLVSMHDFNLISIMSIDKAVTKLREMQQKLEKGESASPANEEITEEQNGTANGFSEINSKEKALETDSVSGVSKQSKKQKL
Sequence of Ezh2 (Q09028 whole entry partner, species assumed): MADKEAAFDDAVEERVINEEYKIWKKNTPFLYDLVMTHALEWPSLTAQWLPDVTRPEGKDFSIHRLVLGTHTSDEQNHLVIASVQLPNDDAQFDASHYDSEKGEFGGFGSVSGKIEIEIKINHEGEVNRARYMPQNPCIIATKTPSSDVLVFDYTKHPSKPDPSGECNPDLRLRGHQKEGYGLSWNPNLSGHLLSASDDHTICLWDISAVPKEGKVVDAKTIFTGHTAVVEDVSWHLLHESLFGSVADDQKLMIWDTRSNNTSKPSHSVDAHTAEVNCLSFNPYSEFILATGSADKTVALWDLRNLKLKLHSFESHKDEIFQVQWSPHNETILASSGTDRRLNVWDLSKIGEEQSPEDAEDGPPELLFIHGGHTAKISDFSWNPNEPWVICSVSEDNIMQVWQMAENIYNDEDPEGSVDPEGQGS

On to `CC[C@H](C)n1cc(C)c2c(C(=O)NCc3c(C)cc(C)[nH]c3=O)cc(-c3ccc(N4CCNCC4)nc3)cc21` [GSK126, N-[(1,2-dihydro-4,6-dimethyl-2-oxo-3-pyridinyl)methyl]-3-methyl-1-[(1S)-1-methylpropyl]-6-[6-(1-piperazinyl)-3-pyridinyl]-1H-indole-4-carboxamide], for which, in data set [1], the AhR gene expression entry is on record as “promoted the expression” and the Arnt gene expression entry is reported as “statistically significant upregulation”.
Regarding `CCCc1cc(C)[nH]c(=O)c1CNC(=O)c1cc(-c2ccnc(N3CCN(C)CC3)c2)cc2c1cnn2C(C)C` [GSK343, N-[(1,2-dihydro-6-methyl-2-oxo-4-propyl-3-pyridinyl)methyl]-1-(1-methylethyl)-6-[2-(4-methyl-1-piperazinyl)-4-pyridinyl]-1H-indazole-4-carboxamide], the “Ki (affinity to Ezh2)” value in data set [2] is reported as “low nM range”.
As to `O=C(CCCCCCC(=O)Nc1ccccc1)NO` [SAHA, suberanilohydroxamic acid], in data set [1], the Cytotoxicity entry is listed as “without high cytotoxicity”, the AhR gene expression entry is “could increase the gene expression” and the Arnt gene expression result is “could increase the gene expression”.

These data come from patent US11992500B2, “Use of methylation inhibitors for the treatment of autoimmune diseases” (Rush University Medical Center, priority 2018, dated 2024).
